Experimental data reported in US7223547B2, “Polypeptides having a functional domain of interest and methods of identifying and using same” (Cytogen Corporation, priority 1995, dated 2007).
* marks the point of attachment. Biotin = O=C1N[C@H]2[C@H](CS[C@H]2CCCCC(=O)*)N1

How the values were obtained:
SH3 domain of Abl = SH3 domain of Abl (Homo sapiens, UniProt P00519); test: Stated SH3 domain binding of recognition unit
Chain of SH3 domain of Abl (P00519 61-121 limits assumed): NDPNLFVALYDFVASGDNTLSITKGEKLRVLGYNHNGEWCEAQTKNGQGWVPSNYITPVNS

Question: Which “binding to the SH3 domain of Nck” value (SH3 domain of Nck) does the source give for “Biotin-SRSLSEVSPKPPIRSVSLSR-NH2 [PXXP.NCK.S1/4]” here?
Answer: bind

Question: For “Biotin-SRPPRWSPPPVPLPTSLDSR-NH2 [PXXP.ABL.G1/2M]”, which “binding to the SH3 domain of Abl” value (SH3 domain of Abl) is on record?
Answer: bind
